Test results taken from patent US20240116985A1, “STAPLED PEPTIDES AND METHODS THEREOF” (priority 2020, published 2024).
pIC50: −log10 of the molar value. Where two headings read alike, the source gives them in different places.

Assays:
[1] = system: TCF/LEF luciferase Reporter in DLD1 cells; assay: TCF reporter assay (DLD1 TCF/LEF luciferase reporter, Bright-Glo); type: cell-based; settings: read-out: DLD1 4% Abs IC50
Summary of the method: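 DLD1 cells stably carrying a TCF/LEF luciferase reporter were plated at 5000 cells/well in RPMI + 4% FBS and treated overnight with a 1:2 compound dilution series. Bright-Glo luminescence read on day 3; viability by CellTiter-Glo. Absolute IC50 determined.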

[2] = target: T1, full-length beta-Catenin (Uniprot ID P35222) (Homo sapiens, UniProt P35222); assay: Fluorescence polarization IC50 (beta-catenin / 5FAM-TCF4 10-53 competition); type: binding; settings: fluorescence polarization; read-out: beta-Catenin FP IC50
T1 construct: 10 nM full-length beta-Catenin (Uniprot ID P35222)
T1 sequence (P35222 1-781): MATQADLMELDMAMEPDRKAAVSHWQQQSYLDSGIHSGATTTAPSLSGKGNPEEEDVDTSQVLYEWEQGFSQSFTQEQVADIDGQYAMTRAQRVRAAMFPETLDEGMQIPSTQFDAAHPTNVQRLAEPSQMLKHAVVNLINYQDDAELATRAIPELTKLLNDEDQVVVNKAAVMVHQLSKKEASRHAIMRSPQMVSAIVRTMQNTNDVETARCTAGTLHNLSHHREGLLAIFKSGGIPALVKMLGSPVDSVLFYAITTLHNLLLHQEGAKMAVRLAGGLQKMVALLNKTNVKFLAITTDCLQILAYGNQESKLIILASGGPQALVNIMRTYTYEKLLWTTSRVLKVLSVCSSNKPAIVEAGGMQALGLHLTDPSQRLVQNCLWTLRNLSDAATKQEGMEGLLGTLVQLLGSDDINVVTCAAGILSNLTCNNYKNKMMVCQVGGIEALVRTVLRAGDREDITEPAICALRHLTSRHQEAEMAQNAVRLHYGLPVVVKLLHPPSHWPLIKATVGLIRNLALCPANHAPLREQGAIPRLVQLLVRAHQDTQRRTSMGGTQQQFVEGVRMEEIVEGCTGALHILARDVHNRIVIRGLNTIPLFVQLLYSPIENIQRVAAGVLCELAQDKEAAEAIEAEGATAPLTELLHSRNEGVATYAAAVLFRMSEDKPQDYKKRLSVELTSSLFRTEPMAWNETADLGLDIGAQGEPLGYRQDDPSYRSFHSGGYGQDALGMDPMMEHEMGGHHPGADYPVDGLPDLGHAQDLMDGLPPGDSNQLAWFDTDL

COLO320DM cells = type: cell-based; settings: COLO320DM cells, read-out: COLO320DM Proliferation Abs IC50
Method: COLO320DM proliferation assay IC50: In some embodiments, inhibition of cell proliferation by provided technologies were assessed using cell lines related to or from certain conditions, disorders or diseases. In some embodiments, cell proliferation was assessed in COLO320DM cells. In some embodiments, assessment was performed using the following procedure: On Day 1, cultured COLO320DM cells in a T75 flask were trypsinized in 3 mL of 0.25% trypsin/EDTA for 5 min and quenched with 10 mL RPMI-1640+4% HI FBS assay media. The cells were spun down at 1200 rpm for 5 min, the cell pellet collected and re-suspended at 5000 cells/mL in assay media. Using a Combi liquid handler, cells were dispensed (50 uL, 250 cells/well) into three 384 well plates. Plates were incubated at 37° C., […]. On day 2, compounds were added. A liquid handling system was used to prepare the compound dilution and dispense compound into assay plates. The compounds were serially diluted 1/2 in 90% DMSO to create a 7 point dose curve. From compound plate, 100 nL of compound were dispensed directly into wells of the assay plates to create a dose curve starting at 20 uM and ending at 313 nM. Assay plates were incubated at 37° C., […]. On day 6, assay plates were removed from the incubator and allowed to sit at room temperature for 30 min. Using a liquid handler, 20 uL of CellTiter Glo reagent was added to each well. The assay plates were shaken for 2 min and allowed to sit on the bench for 10-15 minutes. The assay plates were read using the CellTiter Glo protocol on a GloMax microplate reader, and the data analyzed using GraphPad Prism.

[3] = target: T2, beta-catenin/TCF4 engagement (Homo sapiens, UniProt P35222); assay: Nano-BRET target engagement assay (B-cat-Halo & TCF4-Luc in HEK293 cells); type: cell-based; settings: for pIC50: read-out: NanoBRET Abs IC50
T2 construct: expressed in transfected cells; host or cells: HEK293
T2 sequence (P35222 1-781): T1 sequence (P35222 1-781)

[4] = DLD1 reporter, 4%, absolute IC50

Compound	pIC50 ([1]; DLD1 4%)	pIC50 [2]	pIC50 (COLO320DM cells)	pIC50 [1, 4]	pIC50 (COLO320DM cells; absolute IC50)	pIC50 ([3]; absolute IC50)	pIC50 [3]	IC50 ([3]; NanoBRET Abs IC50 (uM), absolute IC50) [µM]
CC(=O)N1CCC[C@]12CC=CCCCC1(CCCC=CCCCOC(=O)N3CC[C@@](C(=O)N[C@@H](Cc4ccccc4C(F)(F)F)C(=O)N[C@@H](Cc4csc5ccccc45)C(=O)N[C@@H](C)C(N)=O)(C3)NC(=O)[C@H](CC(C)C)NC(=O)[C@H](Cc3ccccc3)NC(=O)[C@H](C)NC(=O)[C@H](CCC(N)=O)NC(=O)[C@H](Cc3cccc(C(=O)O)c3)NC(=O)[C@H](CC(=O)O)NC1=O)NC(=O)[C@H](CC(C)(C)C)NC(=O)[C@H](CC(=O)O)NC2=O (stereo partly drawn) [I-2057, Ac-PL3-Asp-Npg-B5-Asp-3COOHF-Gln-Ala-Phe-Leu-PyrS2-2F3MeF-BztA-Ala-NH2]	5.40	7.77	< 4.70	–	–	–	–	–
CC[C@@H]1NC(=O)[C@H](Cc2ccccc2)NC(=O)[C@H](C)NC(=O)C(C)(C)NC(=O)[C@H](Cc2cccc(C(=O)O)c2)NC(=O)[C@H](CC(=O)O)NC(=O)C2(CCCC=CCCCOC(=O)N3CC[C@@](C(=O)N[C@@H](Cc4ccsc4)C(=O)N[C@@H](Cc4csc5ccccc45)C(=O)N[C@@H](CCC(=O)N(C)C)C(=O)N[C@@H](C)C(N)=O)(C3)NC1=O)CCCC=CC[C@]1(CCCN1C(C)=O)C(=O)N[C@@H](CC(=O)O)C(=O)N[C@@H](CC(C)(C)C)C(=O)N2 (stereo partly drawn) [I-2469, Ac-PL3-Asp-Npg-B5-Asp-3COOHF-Aib-Ala-Phe-Abu-PyrS2-3Thi-BztA-Me2Gln-Ala-NH2]	–	8.15	–	6.22	5.25	5.64	–	–
CC(=O)N1CCC[C@]12CC=CCCCC1(CCCC=CCCCOC(=O)N3CC[C@@](C(=O)N[C@@H](Cc4ccccc4Cl)C(=O)N[C@@H](Cc4csc5ccccc45)C(=O)N[C@@H](CC(N)=O)C(=O)N[C@@H](C)C(=O)N[C@@H](C)C(=O)N[C@H](C)C(N)=O)(C3)NC(=O)[C@H](CC(C)C)NC(=O)[C@H](Cc3ccccc3)NC(=O)[C@H](C)NC(=O)[C@H](C)NC(=O)[C@H](Cc3cccc(C(=O)O)c3)NC(=O)[C@H](CC(=O)O)NC1=O)NC(=O)[C@H](CC(C)(C)C)NC(=O)[C@H](CC(=O)O)NC2=O (stereo partly drawn) [I-2041, Ac-PL3-Asp-Npg-B5-Asp-3COOHF-Ala-Ala-Phe-Leu-PyrS2-2C1F-BztA-Asn-Ala-Ala-dAla-NH2]	5.72	7.80	< 4.70	–	–	–	5.64	–
CC[C@@H]1NC(=O)[C@H](Cc2ccccc2)NC(=O)[C@H](C)NC(=O)C(C)(C)NC(=O)[C@H](Cc2cccc(C(=O)O)c2)NC(=O)[C@H](CC(=O)O)NC(=O)C2(CCCC=CCCCOC(=O)N3CC[C@@](C(=O)N[C@@H](Cc4ccccc4C(F)(F)F)C(=O)N[C@@H](Cc4csc5ccccc45)C(=O)N[C@@H](CCC(=O)N(C)C)C(=O)N[C@@H](C)C(N)=O)(C3)NC1=O)CCCC=CC[C@]1(CCCN1C(C)=O)C(=O)N[C@@H](CC(=O)O)C(=O)N[C@@H](CC(C)(C)C)C(=O)N2 (stereo partly drawn) [I-2468, Ac-PL3-Asp-Npg-B5-Asp-3COOHF-Aib-Ala-Phe-Abu-PyrS2-2F3MeF-BztA-Me2Gln-Ala-NH2]	–	7.42	–	5.19	< 4.70	5.21	–	–
CC(=O)N1CCC[C@]12CC=CCCCC1(CCCC=CCCCOC(=O)N3CC[C@@](C(=O)N[C@@H](Cc4ccsc4)C(=O)N[C@@H](Cc4csc5ccccc45)C(=O)N[C@@H](CCC(N)=O)C(N)=O)(C3)NC(=O)[C@H](CC(C)C)NC(=O)[C@H](Cc3ccccc3)NC(=O)[C@H](C)NC(=O)[C@H](C)NC(=O)[C@H](Cc3cccc(C(=O)O)c3)NC(=O)[C@H](CC(=O)O)NC1=O)NC(=O)[C@H](CC(C)(C)C)NC(=O)[C@H](CC(=O)O)NC2=O (stereo partly drawn) [I-1462, Ac-PL3-Asp-Npg-B5-Asp-3COOHF-Ala-Ala-Phe-Leu-PyrS2-3Thi-BztA-Gln-NH2]	–	8.10	–	5.57	5.08	5.64	–	–
CC(=O)N1CCC[C@]12CC=CCCCC1(CCCC=CCCCOC(=O)N3CC[C@@](C(=O)N[C@@H](Cc4ccsc4)C(=O)N[C@@H](Cc4csc5ccccc45)C(=O)N[C@@H](CC(N)=O)C(N)=O)(C3)NC(=O)[C@H](CC(C)C)NC(=O)[C@H](Cc3ccccc3)NC(=O)[C@H](C)NC(=O)[C@H](C)NC(=O)[C@H](Cc3cccc(C(=O)O)c3)NC(=O)[C@H](CC(=O)O)NC1=O)NC(=O)[C@H](CC(C)(C)C)NC(=O)[C@H](CC(=O)O)NC2=O (stereo partly drawn) [I-2043, Ac-PL3-Asp-Npg-B5-Asp-3COOHF-Ala-Ala-Phe-Leu-PyrS2-3Thi-BztA-Asn-NH2]	6.00	8.10	4.82	–	–	–	5.55	–
CC(=O)N1CCC[C@]12CC=CCCCC1(CCCC=CCCCOC(=O)N3CC[C@@](C(=O)N[C@@H](Cc4ccccc4C(F)(F)F)C(=O)N[C@@H](Cc4csc5ccccc45)C(=O)N[C@@H](CO)C(N)=O)(C3)NC(=O)[C@H](CC(C)C)NC(=O)[C@H](Cc3ccccc3)NC(=O)[C@H](C)NC(=O)[C@H](C)NC(=O)[C@H](Cn3cc(CC(C)(C)C(=O)O)nn3)NC(=O)[C@H](CC(=O)O)NC1=O)NC(=O)[C@H](CC(C)(C)C)NC(=O)[C@H](CC(=O)O)NC2=O (stereo partly drawn) [I-2372, Ac-PL3-Asp-Npg-B5-Asp-[CH2CMe2CO2H]TriAzDap-Ala-Ala-Phe-Leu-PyrS2-2F3MeF-BztA-Ser-NH2]	–	8.30	–	5.68	5.15	5.59	–	–
CC(=O)N1CCC[C@]12CC=CCCCC1(CCCC=CCCCOC(=O)N3CC[C@@](C(=O)N[C@@H](Cc4ccsc4)C(=O)N[C@@H](Cc4csc5ccccc45)C(=O)N[C@@H](CC(N)=O)C(=O)N[C@@H](CC(C)C)C(=O)N[C@@H](CC(C)C)C(=O)N[C@@H](CC(C)C)C(=O)N[C@@H](CC(C)C)C(=O)N[C@@H](CC(C)C)C(N)=O)(C3)NC(=O)[C@H](CC(C)C)NC(=O)[C@H](Cc3ccccc3)NC(=O)[C@H](C)NC(=O)[C@H](C)NC(=O)[C@H](Cc3cccc(C(=O)O)c3)NC(=O)[C@H](CC(=O)O)NC1=O)NC(=O)[C@H](CC(C)(C)C)NC(=O)[C@H](CC(=O)O)NC2=O (single isomer, unassigned) [I-2280, Ac-PL3-Asp-Npg-B5-Asp-3COOHF-Ala-Ala-Phe-Leu-PyrS2-3Thi-BztA-Asn-Leu-Leu-Leu-Leu-Leu-NH2]	–	–	–	< 4.70	< 4.70	–	–	> 20
CCCC[C@@H]1NC(=O)[C@H](Cc2ccccc2)NC(=O)[C@H](C)NC(=O)[C@H](C)NC(=O)[C@H](Cc2cccc(C(=O)O)c2)NC(=O)[C@H](CC(=O)O)NC(=O)C2(CCCC=CCCCOC(=O)N3CC[C@@](C(=O)N[C@@H](Cc4ccccc4C(F)(F)F)C(=O)N[C@@H](Cc4csc5ccccc45)C(=O)N[C@@H](CCC(=O)N4CCOCC4)C(N)=O)(C3)NC1=O)CCCC=CC[C@]1(CCCN1C(C)=O)C(=O)N[C@@H](CC(=O)O)C(=O)N[C@@H](CC(C)(C)C)C(=O)N2 (stereo partly drawn) [I-2542, Ac-PL3-Asp-Npg-B5-Asp-3COOHF-Ala-Ala-Phe-nLeu-PyrS2-2F3MeF-BztA-MorphGln-NH2]	–	7.64	–	–	< 4.70	5.40	–	–
